Laboratory results reported in PMC6805867, “Amphiphilic Triazine Polymer Derivatives as Antibacterial And Anti-atopic Agents in Mice Model” (Scientific Reports, 2019).

Legend:
[1] = test system: Multidrug-resistant Pseudomonas aeruginosa (MDRPA) (CCARM 2095); assay: Chequerboard assay (synergy with clinically used antibiotics); format: cell-based; conditions: for FICB: [B]/MICB; for FICI (fractional inhibitory concentration index): MDRPA CCARM 2095; for [B] (MIC of triazine polymer in combination): unit not given
Description: Briefly, 2-fold serial dilutions of each antibiotic and each polymer were prepared and added in a 1:1 volume ratio to the wells of a 96-well plate. An equal volume of bacterial solution (100 μL) at ∼10^6 CFU/mL was then seeded into each well. The plates were incubated in a shaking incubator at 37 °C and 200 rpm and read after 22 h. Bacterial growth was assessed visually or spectrophotometrically via OD600 readings taken by a microplate ELISA reader (Molecular Devices, Sunnyvale, CA, USA). The fractional inhibitory concentration index (FICI) for each drug combination was calculated using the following equation: FICI = FICA + FICB = [A]/MICA + [B]/MICB, where MICA and MICB are the MIC of antibiotic and triazine based monomer (TZP3 or TZP5), respectively, while [A] and [B] are the MIC of antibiotic and triazine based monomer (TZP3 or TZP5) in combination, respectively. FICI of ≤ 0.5 was interpreted as synergy, 0.5 < FICI ≤ 1.0 as additive, 1.0 < FICI ≤ 4.0 as indifferent, and a FICI > 4.0 as antagonism.

TNF-α in RBL-2H3 cells = assay: Production of TNF-α induced by A23187 and PMA; format: cell-based, rat; conditions: 1 μM A23187 and 80 nM PMA, 4 h
Description: The inhibition of TNF-α release induced by A23187 and PMA from the RBL-2H3 cells was assessed by using a previously reported method. The RBL-2H3 cells (2 × 10^5 cells/well) were cultured with 1 μM A23187 and 80 nM PMA for 4 h at 37 °C, after exposure to 0, 15.625, 31.25, 62.5, or 125 μg/mL 30 min of the TZP3 and TZP5. Next, the cells were used for RT-PCR.
Effect of TZP3 and TZP5 on TNF-α suppression
Therefore, the dimer TZP3 and trimer TZP5 were probed for their potential for inhibiting the TNF-α induced from RBL-2H3 cells in in vitro method.
Calcium ionophore A23187 and PMA induced the TNF-α secretion in RBL-2H3 cells, on the contrary, treatment of which with TZP3 and TZP5
Figure S1. Inhibitory effects of the TZP3 and TZP5 on A23187 and PMA-induced TNF-α induced from RBL-2H3 cells. […]

[2] = test system: AD-like skin lesion in BALB/c mice; assay: DNCB-induced AD-like skin lesion model, dermatitis score; format: in vivo; conditions: 200 μg/mL in 20 μL PBS on dorsal skin once daily for 18 days, versus AD mice, n = 8
Description: (§1) As described in our previous article, the 7-week-old female BALB/c mice were divided into seven groups (n = 8 per group): Control (Con) group, TZP3 200 μg/mL (TZP3) group, and TZP5 200 μg/mL (TZP5) group, DNCB-sensitized only (AD) group, DNCB-sensitized + TZP3 200 μg/mL (AD + TZP3) group, DNCB-sensitized + TZP5 200 μg/mL (AD + TZP5) group, DNCB-sensitized + Dermatop (Sanofi, Korea) 0.25% (AD + Dermatop) group. Dermatop was used as a positive control treatment. For the first induction of AD in the BALB/c mice, the backs of the mice were shaved and challenged with 200 μL of 1% 2,4-dinitrochlorobenzene(DNCB) in acetone/olive oil (3:1) one time (day−4). After 4 days from the induction, 0.5% DNCB was painted onto the backs of the mice every two days (day 2, 4, 6, 8, 10, 12, 14, 16 and 18). Concentrations of 200 μg/mL TZP3 or TZP5 in 20 μL of PBS were applied to the dorsal skin once daily for 18 days.
The severity of dermatitis on the dorsal skin lesions was evaluated three times per week, according to a slight modification of the criteria described previously. The development of (1) erythema/hemorrhage, (2) scarring/dryness, (3) edema, and (4) excoriation/erosion was scored as 0 (none), 1 (mild), 2 (moderate), or 3 (severe). The sum of the individual scores was defined as the dermatitis score.

[3] = test system: dorsal skin of AD-induced BALB/c mice; assay: DNCB-induced AD model, histological observations (H&E, toluidine blue); format: in vivo; conditions: versus AD mice; for decrease in both epidermal and dermal thickness: 200 μg/mL topical daily for 18 days, H&E staining; for infiltration of mast cells in the skin lesions: topical application, toluidine blue staining
Description: as §1
As described in our previous article, the skin tissues of the mice were […] in 10% neutral buffered formalin (NBF) for 24 h and embedded in white paraffin. Serial paraffin‐sections with 5 µm thickness, were prepared and stained with hematoxylin-eosin (H&E) or toluidine blue. The thickness of the epidermis and dermis was measured under a microscope. The number of mast cells stained by toluidine blue in the upper dermis in a field of 0.25 mm × 0.25 mm (0.0625 mm^2) was counted under the microscope. The cells in five fields (0.3125 mm^2 in total) of the upper dermis were counted, and an estimate of the number of cells per 1 mm^2 was made for each mouse specimen.

[4] = in combination with chloramphenicol
[5] = in combination with ciprofloxacin
[6] = combination with chloramphenicol

SMILES	FICB [1, 4]	FICB [1, 5]	FICB ([1]; in combination with oxacillin)	Interaction [1, 6]	FICI (fractional inhibitory concentration index) [1, 6]	Interaction ([1]; combination with ciprofloxacin)	FICI (fractional inhibitory concentration index) ([1]; combination with ciprofloxacin)	Interaction ([1]; combination with oxacillin)	FICI (fractional inhibitory concentration index) ([1]; combination with oxacillin)	[B] (MIC of triazine polymer in combination) [1, 4]	[B] (MIC of triazine polymer in combination) [1, 5]	[B] (MIC of triazine polymer in combination) ([1]; in combination with oxacillin)	TNF-α suppression (TNF-α in RBL-2H3 cells; 15.6 μg/mL)	TNF-α suppression (TNF-α in RBL-2H3 cells; 31.2 μg/mL)	TNF-α suppression (TNF-α in RBL-2H3 cells; 62.5 μg/mL)	TNF-α suppression (TNF-α in RBL-2H3 cells; 125 μg/mL)	dermatitis score [2]	decrease in both epidermal and dermal thickness [3]	infiltration of mast cells in the skin lesions [3]
NCCCN(CCCN)c1nc(N)nc(NCCNc2nc(Cl)nc(N(Cc3ccccc3)Cc3ccccc3)n2)n1 [TZP3]	0.25	0.5	1.0	synergy (FICI of ≤ 0.5 was interpreted as synergy)	0.281	additive (0.5 < FICI ≤ 1.0 as additive)	0.75	indifferent (1.0 < FICI ≤ 4.0 as indifferent)	2.0	4	8	16	~10%	~10%	approximately 70%	~90%	significantly decreased score	more than 50%	significantly suppressed
NCCCN(CCCN)c1nc(Cl)nc(NCCNc2nc(NCCNc3nc(N)nc(NCCC(c4ccccc4)c4ccccc4)n3)nc(N(CCCN)CCCN)n2)n1 [TZP5]	0.25	0.25	1.0	synergy (FICI of ≤ 0.5 was interpreted as synergy)	0.281	synergy (FICI of ≤ 0.5 was interpreted as synergy)	0.5	indifferent (1.0 < FICI ≤ 4.0 as indifferent)	2.0	4	4	16	didn’t show appreciable TNF-α suppressions	didn’t show appreciable TNF-α suppressions	dose-dependent manner	dose-dependent manner	significantly decreased score	more than 50%	significantly suppressed
